ChEMBL document CHEMBL1153395, “Development of a novel virtual screening cascade protocol to identify potential trypanothione reductase inhibitors” (J Med Chem, 2009)

Columns and labels:
Trypanothione reductase [1] = biological target: Trypanothione reductase (Trypanosoma cruzi, UniProt P28593); test: Inhibition of Trypanosoma cruzi Trypanothione reductase
Trypanothione reductase [2] = biological target: Trypanothione reductase (Trypanosoma brucei brucei, UniProt P39051); test: Inhibition of Trypanosoma brucei Trypanothione reductase
Sequence of Trypanothione reductase (Trypanosoma brucei brucei, UniProt P39051) (P39051 whole entry): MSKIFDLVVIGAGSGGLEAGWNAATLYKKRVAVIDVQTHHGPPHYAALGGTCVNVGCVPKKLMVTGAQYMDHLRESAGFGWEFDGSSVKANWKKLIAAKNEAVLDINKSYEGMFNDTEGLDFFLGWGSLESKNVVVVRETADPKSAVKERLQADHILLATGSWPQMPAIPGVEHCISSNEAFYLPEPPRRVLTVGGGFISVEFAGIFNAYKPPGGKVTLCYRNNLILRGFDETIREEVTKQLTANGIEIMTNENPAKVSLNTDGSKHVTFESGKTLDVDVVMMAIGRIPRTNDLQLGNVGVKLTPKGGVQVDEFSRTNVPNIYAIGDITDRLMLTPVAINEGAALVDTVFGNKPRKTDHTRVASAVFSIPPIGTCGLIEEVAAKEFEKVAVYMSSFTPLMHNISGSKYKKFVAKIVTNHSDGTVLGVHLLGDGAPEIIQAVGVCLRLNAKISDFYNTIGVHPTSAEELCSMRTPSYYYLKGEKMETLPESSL

Sequence of Trypanothione reductase (Trypanosoma cruzi, UniProt P28593) (P28593 whole entry): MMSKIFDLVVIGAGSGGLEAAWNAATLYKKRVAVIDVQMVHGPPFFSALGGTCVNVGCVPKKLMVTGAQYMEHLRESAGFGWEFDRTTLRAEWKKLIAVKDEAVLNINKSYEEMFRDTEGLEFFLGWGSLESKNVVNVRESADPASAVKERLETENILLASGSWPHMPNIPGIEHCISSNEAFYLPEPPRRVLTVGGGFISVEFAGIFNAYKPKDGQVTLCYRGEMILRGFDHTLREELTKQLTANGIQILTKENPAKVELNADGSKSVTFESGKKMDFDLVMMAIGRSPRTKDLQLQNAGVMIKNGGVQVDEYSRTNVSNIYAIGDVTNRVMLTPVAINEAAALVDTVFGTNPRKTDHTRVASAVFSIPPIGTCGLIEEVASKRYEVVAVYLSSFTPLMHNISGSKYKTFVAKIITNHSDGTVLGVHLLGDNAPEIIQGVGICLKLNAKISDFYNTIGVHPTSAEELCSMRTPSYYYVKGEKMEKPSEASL

| Compound | IC50 (Trypanothione reductase [1]) [µM] | IC50 (Trypanothione reductase [2]) [µM] |
| --- | --- | --- |
| O=C(CN1CCCCCC1)N1c2ccccc2Sc2ccc(Cl)cc21 | 78.7 | > 100 |
| CC(NS(=O)(=O)c1ccccc1)C(=O)Nc1ccccc1Sc1ccccc1 (configuration not stated) | > 100 | > 100 |
| CC12CN3CC(C)(C1)C[N+](Cc1cccc(Br)c1)(C3)C2 | > 100 | > 100 |
| NC(=O)C1(N2CCCCC2)CCN(CC(=O)Nc2ccccc2Sc2ccccc2)CC1 | > 100 | > 100 |
| CN(CC(=O)Nc1ccccc1Sc1ccccc1)C1CCCCC1 | 56.3 | 46.9 |
| C[N+]1(C)CCCC2c3ccccc3Sc3ccc(Cl)cc3C21 (configuration not stated) | 75.3 | 58.7 |
| CN(C)CCCC1Sc2ccccc2Sc2ccccc21 (configuration not stated) | 36.7 | 37.3 |
| CN1CCN(C2=NC(=O)CC(C(=O)Nc3cccc(Cl)c3)N2)CC1 (configuration not stated) | > 100 | > 100 |
| CCN1CCN(C2Cc3ccccc3Sc3ccc(Cl)cc32)CC1 (configuration not stated) | 29.1 | 36 |
| Cc1ccc(N2CC(C(=O)Nc3ccccc3Sc3ccccc3)CC2=O)cc1 (configuration not stated) | > 100 | > 100 |
| O=C(CCN1CCN2CCCCC2C1)N1c2ccccc2Sc2ccc(Cl)cc21 (configuration not stated) | 35.4 | 31.9 |
| C[N+]1(Cc2ccccc2)CCC(/N=C/C2C(=O)NC(=O)N(C3CCCCC3)C2=O)CC1 (configuration not stated) | 45.2 | > 100 |
| O=C(CN1C(=O)NC2(CCCCCC2)C1=O)Nc1ccccc1Sc1ccccc1 | > 100 | > 100 |
| O=C(CN1CCN(c2ccccc2)CC1)Nc1ccccc1Sc1ccccc1 | > 100 | > 100 |
| O=C(CN1C(=O)C2CC=CCC2C1=O)Nc1ccccc1Sc1ccc(Cl)cc1 (configuration not stated) | > 100 | > 100 |
| CN1CCCC(CC2Oc3ccccc3Sc3ccccc32)C1 (configuration not stated) | 11.5 | 14.6 |
| NCCCCC(N)C(=O)Nc1ccc2ccccc2c1 (configuration not stated) | > 100 | > 100 |
| CC1CCCCC12NC(=O)N(CC(=O)Nc1ccccc1Sc1ccccc1)C2=O (configuration not stated) |  | > 100 |
| c1ccc2c(c1)Sc1ccccc1N2CC1CN2CCC1CC2 (configuration not stated) [MEQUITAZINE] | 21.8 | 54.3 |
